Assay results: patent US7332512B2, “Halogenated nitrobutadienes for controlling animal pests” (priority 2001, dated 2008)

Columns and labels:
Assay type in all cases: in vivo
[1] = system: Adults of Ctenocephalides felis; test: Test with cat fleas/oral uptake (Example L); settings: orally, 28 h
Description: Test with Cat Fleas/Oral Uptake
To produce a suitable formulation, a suitable solution of active compound is prepared from 20 mg of active compound and 1 ml of DMSO. 15 μl of this formulation are added to 3 ml of citrated cattle blood and stirred.
10 unfed adult fleas (Ctenocephalides felis, strain “Georgi”) are placed into a chamber (Ø 3.2 cm) whose top and bottom are closed with gauze. A metal cylinder whose underside is covered with parafilm is placed onto the chamber. The cylinder contains the 3 ml of blood/active compound formulation which can be taken up by the fleas through the paraffin membrane. Whereas the blood is warmed to 37° C., the temperature in the area of the flea chambers is adjusted to 25° C. Controls are mixed with the same volume of DMSO, without addition of a compound. The determinations are carried out in triplicate.
After 28 h, the mortality in % (=dead fleas) is determined.
Compounds which effect at least 25% kill of the fleas within 28 h are judged to be effective.

[2] = system: eggs, larvae and pupae of the white fly (Bemisia tabaci); test: Bemisia test (Example I), infected cotton plants dipped; settings: 500 ppm active compound; 6 days
Description: To produce a suitable preparation of active compound, 1 part by weight of active compound is mixed with the stated amounts of solvent and emulsifier, and the concentrate is diluted with water to the desired concentrations.
Cotton plants (Gossypium hirsutum) infected by eggs, larvae and pupae of the white fly (Bemisia tabaci) are dipped into a preparation of active compound of the desired concentration.
(§1) After the desired period of time, the kill in % is determined. 100% means that all animals have been killed; 0% means that none of the animals have been killed.

[3] = system: green peach aphid (Myzus persicae); test: Myzus test (Example A), infested broad bean seedlings dipped; settings: 500 ppm active compound, 6 days
Description: To produce a suitable preparation of active compound, 1 part by weight of active compound is mixed with the stated amounts of solvent and emulsifier, and the concentrate is diluted with water to the desired concentration.
Broad bean seedlings (Vicia faba minor) which are infested by the green peach aphid (Myzus persicae) are dipped into a preparation of active compound of the desired concentration and placed into a plastic box.
as §1

[4] = system: larvae of the mustard beetle (Phaedon cochleariae); test: Phaedon larvae test (Example B), dipped cabbage leaves; settings: 100 ppm active compound; 6 days
Description: (§2) To produce a suitable preparation of active compound, 1 part by weight of active compound is mixed with the stated amounts of solvent and emulsifier, and the concentrate is diluted with emulsifier-containing water to the desired concentration.
(§3) Cabbage leaves (Brassica oleracea) are treated by being dipped into the preparation of active compound of the desired concentration and are populated with larvae of the mustard beetle (Phaedon cochleariae) while the leaves are still moist.
(§4) After the desired period of time, the kill in % is determined. 100% means that all beetle larvae have been killed; 0% means that none of the beetle larvae have been killed.

[5] = system: eggs of the diamondback moth (Plutella xylostella); test: Plutella test (Example C), synthetic feed; settings: 150 ppm active compound; 7 days; kill of eggs and/or larvae
Description: To produce a suitable preparation of active compound, 1 part by weight of active compound is mixed with the stated amount of solvent and the concentrate is diluted with methanol to the desired concentrations.
The stated amount of the preparation of active compound of the desired concentration is pipetted onto a standardized amount of synthetic feed. After the methanol has evaporated, about 200-300 eggs of the diamondback moth (Plutella xylostella) are placed onto the feed.
After the desired period of time, the kill of the eggs and/or larvae in % is determined. 100% means that all animals have been killed; 0% means that none of the animals have been killed.

[6] = system: cotton aphid (Aphis gossypii); test: Aphis gossypii test (Example D), infested cotton leaves dipped; settings: 500 ppm active compound; 6 days
Description: as §2
Cotton leaves (Gossypium hirsutum) which are heavily infested by the cotton aphid (Aphis gossypii) are treated by being dipped into the preparation of active compound of the desired concentration.
(§5) After the desired period of time, the kill in % is determined. 100% means that all aphids have been killed; 0% means that none of the aphids have been killed.

Aphis gossypii = test: Critical concentration test/root-systemic action (Example E), soil drench; settings: 20 ppm in soil; 10 days; root-systemic; savoy cabbage
Description: (§6) Critical Concentration Test/Root-Systemic Action
(§7) To produce a suitable preparation of active compound, 1 part by weight of active compound is mixed with the stated amount of solvent, the stated amount of emulsifier is added and the concentrate is diluted with water to the desired concentration.
(§8) The preparation of active compound is poured onto the soil of the infected savoy cabbage plant. In this way, the active compound can be taken up from the soil by the roots of the plants and can be transported into the leaves. Here, the concentration of active compound in the preparation is virtually immaterial, only the amount by weight per volume unit of soil, which is stated in ppm ([…]), matters.
(§9) The root-systemic action of the active compound is derived from the kill rate. It is 100% if all test animals have been killed and 0% if the number of test insects alive is the same as that for the untreated control.

Myzus persicae [7] = test: Critical concentration test/root-systemic action (Example F), soil drench; settings: 20 ppm in soil; 10 days; root-systemic; savoy cabbage
Description: as §6, §7, §8, §9

[8] = system: green peach aphid (Myzus persicae); test: Myzus test (Example G), infested cabbage leaves dipped; settings: 500 ppm active compound, 6 days
Description: as §2
Cabbage leaves (Brassica oleracea), which are heavily infested by the green peach aphid (Myzus persicae) are treated by being dipped into the preparation of active compound of the desired concentration.
as §5

[9] = system: larvae of the mustard beetle (Phaedon cochleariae); test: Phaedon larvae test (Example H), dipped cabbage leaves; settings: 500 ppm active compound; 6 days
Description: as §2, §3, §4

Myzus persicae [10] = test: Critical concentration test/root-systemic action (Example K), compound mixed with soil, broad beans; settings: 4 ppm in soil
Description: as §6, §7
The preparation of active compound is mixed intimately with the soil. Here, the concentration of the active compound in the preparation is virtually immaterial, only the amount by weight of active compound per volume unit of soil, which is stated in ppm ([…]) matters. The treated soil is filled into pots of a volume of 250 ml, and pregerminated broad beans are planted into these pots. In this way, the active compound can be taken up from the soil by the plant roots and be transported into the leaves.
The root-systemic action of the active compound is derived from the kill rate. It is 100% if all test animals have been killed and 0% if the number of test insects still alive is exactly the same as in the untreated control.

[11] = system: adult Musca domestica, Reichswald strain (OP, SP, carbamate-resistant); test: Test with flies (Musca domestica) (Example M), treated filter paper; settings: time of reading not given
Description: Test with Flies (Musca domestica)
(§10) 20 mg of active compound are dissolved in 1 ml of dimethyl sulphoxide, more dilute concentrations are prepared by dilution with dist. H2O.
2 ml of this active compound preparation are pipetted onto filter paper discs (Ø 9.5 cm) in Petri dishes of corresponding dimensions. After the filter discs have been dried, 25 test animals are transferred into the Petri dishes, which are then covered.
After 1, 3, 5, 24 and 48 hours, the activity of the active compound preparation is determined. 100% means that all flies have been killed; 0% means that none of the flies have been killed.

Lucilia cuprina larvae = test: Blowfly larvae test/development-inhibitory action (Example N); settings: 48 h
Description: Blowfly Larvae Test/Development-Inhibitory Action
as §10
About 20 Lucilia cuprina larvae are introduced into a test tube which contains about 1 cm^3 of horse meat and 0.5 ml of the preparation of active compound to be tested. After 24 and 48 hours, the efficacy of the preparation of active compound is determined. The test tubes are transferred into a beaker whose bottom is covered with sand. After a further 2 days, the test tubes are removed and the pupae are counted.
The efficacy of the preparation of active compound is assessed by the number of flies that have hatched after 1.5 times the period of development of an untreated control. 100% means that no flies have hatched; 0% means that all flies have hatched normally.

[12] = system: caterpillars of the armyworm (Spodoptera frugiperda); test: Spodoptera frugiperda test (Example J), dipped cabbage leaves; settings: 500 ppm active compound; 7 days; % only printed in method b344
Description: Spodoptera frugiperda Test
as §2
Cabbage leaves (Brassica oleracea) are treated by being dipped into the preparation of active compound of the desired concentration and are populated with caterpillars of the armyworm (Spodoptera frugiperda) while the leaves are still moist.
After the desired period of time, the kill in % is determined. 100% means that all caterpillars have been killed; 0% means that none of the caterpillars have been killed.

| Compound | % action/kill ([1]; 20 ppm in cattle blood) [%] | % action/kill ([1]; 100 ppm in cattle blood) [%] | Kill rate in % after 6 d (days) [2] [%] | Kill rate in % after 6 d (days) [3] [%] | Kill rate in % after 10 d (days) (Aphis gossypii) [%] | Kill rate in % after 10 d (days) (Myzus persicae [7]) [%] | Kill rate in % after 6 d (days) [8] [%] | Kill rate in % after 6 d (days) [9] [%] | % kill after weeks (Myzus persicae [10]; after 2 weeks) [%] | % kill after weeks (Myzus persicae [10]; after 3 weeks) [%] | % kill after weeks (Myzus persicae [10]; after 4 weeks) [%] | % action/kill (Lucilia cuprina larvae; 20 ppm) [%] | % action/kill (Lucilia cuprina larvae; 100 ppm) [%] | further results |
| --- | --- | --- | --- | --- | --- | --- | --- | --- | --- | --- | --- | --- | --- | --- |
| Cc1ccc(SC(=C(Cl)Cl)C(=C2NCCN2Cc2ccc(Cl)nc2)[N+](=O)[O-])cc1 [Example I-3, 2-chloro-5-[2-(2-(p-tolylthio)-3,3-dichloro-1-nitroallylidene)imidazolidin-1-ylmethyl]pyridine] | 0 | 50 | – | – | – | – | – | – | – | – | – | – | – | – |
| O=[N+]([O-])/C(C(=C(Cl)Cl)N1CCCC1)=C1\NCCN1Cc1ccc(Cl)nc1 [Example I-10] | 40 | 100 | 100 | – | – | – | – | – | – | – | – | – | – | – |
| O=[N+]([O-])/C(C(=C(Cl)Cl)N1CCOCC1)=C1\NCCN1Cc1ccc(Cl)nc1 [Example I-2, 2-chloro-5-[2-(2-morpholinyl-3,3-dichloro-1-nitro-allylidene)imidazolidin-1-ylmethyl]pyridine] | 80 | 80 | 100 | 100 | 100 | 100 | 100 | 100 | 100 | 100 | 99 | 0 | 100 | Kill rate in % after 6 d (days) [4]: 100%; Kill rate in % after 7 d (days) [5]: 100%; Kill rate in % after 6 d (days) [6]: 100%; % action/kill ([1]; 0.8 ppm in cattle blood): 0%; % action/kill ([1]; 4 ppm in cattle blood): 0%; % action/kill ([11]; 20 ppm): 0%; % action/kill ([11]; 100 ppm): 50% |
| CN(C(=C(Cl)Cl)/C(=C1/NCCN1Cc1ccc(Cl)nc1)[N+](=O)[O-])C(C)(C)C [Example I-12] | 30 | 70 | – | – | – | – | – | – | – | – | – | 0 | 100 | Rate of activity after 7 d (days) [12]: 100% |
| O=[N+]([O-])/C(C(=C(Cl)Cl)N1CCSCC1)=C1\NCCN1Cc1ccc(Cl)nc1 [Example I-11] | 0 | 70 | – | – | – | – | 100 | 100 | – | – | – | 0 | 100 | – |
| O=[N+]([O-])/C(C(Cl)=C(Cl)Cl)=C1\NCCN1Cc1ccc(Cl)nc1 [Example I-1, 2-chloro-5-[2-(2,3,3-trichloro-1-nitroallylidene)imidazolidin-1-ylmethyl]pyridine] | – | – | – | 100 | 100 | 100 | – | – | 100 | 100 | 99 | 0 | 100 | % kill after weeks (Myzus persicae [10]; after 5 weeks): 100% |
